Reference: patent publication US12077503B2, “Substituted cyclic amides and their use as herbicides” (FMC CORPORATION, priority 2015, dated 2024)

Assays:
Format in all cases: in vivo
[1] = system: giant foxtail (Setaria faberii); assay: Test A postemergence; settings: Setaria faberi, post-emergence, 240 h, Postemergence, read-out: Plant response rating, Foxtail, Giant; for pest or weed control at 125 g/ha: 125 g ai/ha, visual injury after approx. 10 d, 0 to 100 scale, 0 no effect, 100 complete control; for pest or weed control at 500 g/ha: 500 g ai/ha, visual injury, 0 to 100 scale (0 no effect, 100 complete control), approx. 10 d
How it was run: (§1)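 Seeds sprayed preemergence with a directed soil spray, or plants at 2 to 10 cm height and one- to two-leaf stage sprayed postemergence, with test chemicals in a non-phytotoxic solvent mixture containing surfactant, in loam soil–sand blend. Injury rated visually against untreated controls after about 10 d in greenhouse, 0 (no effect) to 100 (complete control).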

[2] = system: pigweed (Amaranthus retroflexus); assay: Test A postemergence; settings: Amaranthus retroflexus, post-emergence, 240 h, Postemergence, read-out: Plant response rating, Pigweed; for pest or weed control at 125 g/ha: 125 g ai/ha, visual injury after approx. 10 d, 0 to 100 scale, 0 no effect, 100 complete control; for pest or weed control at 500 g/ha: 500 g ai/ha, visual injury, 0 to 100 scale (0 no effect, 100 complete control), approx. 10 d
How it was run: as §1

[3] = system: Galium (catchweed bedstraw, Galium aparine); assay: Test A postemergence; settings: Galium, post-emergence, 240 h, Postemergence, read-out: Plant response rating, Galium; for pest or weed control at 125 g/ha: 125 g ai/ha, visual injury after approx. 10 d, 0 to 100 scale, 0 no effect, 100 complete control; for pest or weed control at 500 g/ha: 500 g ai/ha, visual injury, 0 to 100 scale (0 no effect, 100 complete control), approx. 10 d
How it was run: as §1

Kochia (Kochia scoparia) = assay: Test A postemergence; settings: Bassia scoparia, post-emergence, 240 h, Postemergence, read-out: Plant response rating, Kochia; for pest or weed control at 125 g/ha: 125 g ai/ha, visual injury after approx. 10 d, 0 to 100 scale, 0 no effect, 100 complete control; for pest or weed control at 500 g/ha: 500 g ai/ha, visual injury, 0 to 100 scale (0 no effect, 100 complete control), approx. 10 d
How it was run: as §1

[4] = system: ryegrass, Italian (Italian ryegrass, Lolium multiflorum); assay: Test A postemergence; settings: Lolium multiflorum, post-emergence, 240 h, Postemergence, read-out: Plant response rating, Ryegrass, Italian; for pest or weed control at 125 g/ha: 125 g ai/ha, visual injury after approx. 10 d, 0 to 100 scale, 0 no effect, 100 complete control; for pest or weed control at 500 g/ha: 500 g ai/ha, visual injury, 0 to 100 scale (0 no effect, 100 complete control), approx. 10 d
How it was run: as §1

[5] = system: wheat (Triticum aestivum); assay: Test A postemergence; settings: Triticum aestivum, post-emergence, 240 h, Postemergence, read-out: Plant response rating, Wheat; for plant injury at 125 g/ha: 125 g ai/ha, visual injury after approx. 10 d, 0 to 100 scale, 0 no effect, 100 complete control; for plant injury at 500 g/ha: 500 g ai/ha, visual injury, 0 to 100 scale (0 no effect, 100 complete control), approx. 10 d
How it was run: as §1

corn (Zea mays) = assay: Test A postemergence; settings: Zea mays, post-emergence, 240 h, Postemergence; for Corn plant response rating (crop injury, 0 = no effect, 100 = complete kill) at 125 g/ha: 125 g ai/ha, visual injury after approx. 10 d, 0 to 100 scale, 100 complete control; for Corn plant response rating (crop injury, 0 = no effect, 100 = complete kill) at 500 g/ha: 500 g ai/ha, visual injury, 0 to 100 scale (0 no effect, 100 complete control), approx. 10 d
How it was run: as §1

[6] = system: barnyardgrass (Echinochloa crus-galli); assay: Test A postemergence; settings: Echinochloa crus-galli, post-emergence, 240 h, Postemergence, read-out: Plant response rating, Barnyardgrass; for pest or weed control at 125 g/ha: 125 g ai/ha, visual injury after approx. 10 d, 0 to 100 scale, 0 no effect, 100 complete control; for pest or weed control at 500 g/ha: 500 g ai/ha, visual injury, 0 to 100 scale (0 no effect, 100 complete control), approx. 10 d
How it was run: as §1

[7] = system: blackgrass (Alopecurus myosuroides); assay: Test A postemergence; settings: Alopecurus myosuroides, post-emergence, 240 h, Postemergence, read-out: Plant response rating, Blackgrass; for pest or weed control at 125 g/ha: 125 g ai/ha, visual injury after approx. 10 d, 0 to 100 scale, 0 no effect, 100 complete control; for pest or weed control at 500 g/ha: 500 g ai/ha, visual injury, 0 to 100 scale (0 no effect, 100 complete control), approx. 10 d
How it was run: as §1

[8] = system: ragweed (common ragweed, Ambrosia elatior); assay: Test A postemergence; settings: Ambrosia artemisiifolia, post-emergence, 240 h, Postemergence, read-out: Plant response rating, Ragweed; for pest or weed control at 125 g/ha: 125 g ai/ha, visual injury after approx. 10 d, 0 to 100 scale, 0 no effect, 100 complete control; for pest or weed control at 500 g/ha: 500 g ai/ha, visual injury, 0 to 100 scale (0 no effect, 100 complete control), approx. 10 d
How it was run: as §1

rice (Oryra sativa) = assay: Test B flooded paddy test; settings: Oryza sativa, 360 h, Flood, 250 g ai/ha; visually evaluated after 13 to 15 d; read-out: Plant response rating, Rice (0 to 100 scale where 0 is no effect and 100 is complete control)
How it was run: (§2)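 Flooding to 3 cm over soil accompanied treatment, which consisted of adding compound to the standing water around 2-leaf plants; depth was then maintained. Visual assessment versus controls followed at 13 to 15 d (scale 0–100, 0 meaning no effect).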

[9] = system: sedge, umbrella (small-flower umbrella sedge, Cyperus difformis); assay: Test B flooded paddy test; settings: Cyperus difformis, 360 h, Flood, 250 g ai/ha; visually evaluated after 13 to 15 d; read-out: Plant response rating, Sedge, Umbrella (0 to 100 scale where 0 is no effect and 100 is complete control)
How it was run: as §2

[10] = system: ducksalad (Heteranthera limosa); assay: Test B flooded paddy test; settings: Heteranthera limosa, 360 h, Flood, 250 g ai/ha; visually evaluated after 13 to 15 d; read-out: Plant response rating, Ducksalad (0 to 100 scale where 0 is no effect and 100 is complete control)
How it was run: as §2

[11] = system: barnyardgrass (Echinochloa crus-galli); assay: Test B flooded paddy test; settings: Echinochloa crus-galli, 360 h, Flood, 250 g ai/ha; visually evaluated after 13 to 15 d; read-out: Plant response rating, Barnyardgrass (0 to 100 scale where 0 is no effect and 100 is complete control)
How it was run: as §2

SMILES | pest or weed control at 125 g/ha [1] [%] | pest or weed control at 500 g/ha [1] [%] | pest or weed control at 125 g/ha [2] [%] | pest or weed control at 500 g/ha [2] [%] | pest or weed control at 125 g/ha [3] [%] | pest or weed control at 500 g/ha [3] [%] | pest or weed control at 125 g/ha (Kochia (Kochia scoparia)) [%] | pest or weed control at 500 g/ha (Kochia (Kochia scoparia)) [%] | pest or weed control at 125 g/ha [4] [%] | pest or weed control at 500 g/ha [4] [%] | plant injury at 125 g/ha [5] [%] | plant injury at 500 g/ha [5] [%] | Corn plant response rating (crop injury, 0 = no effect, 100 = complete kill) at 125 g/ha (corn (Zea mays)) [%] | Corn plant response rating (crop injury, 0 = no effect, 100 = complete kill) at 500 g/ha (corn (Zea mays)) [%] | pest or weed control at 125 g/ha [6] [%] | pest or weed control at 500 g/ha [6] [%] | pest or weed control at 125 g/ha [7] [%] | pest or weed control at 500 g/ha [7] [%] | pest or weed control at 125 g/ha [8] [%] | pest or weed control at 500 g/ha [8] [%] | also measured
CN1C[C@H](c2cccc(C(F)(F)F)c2)[C@@H](C(=O)Nc2ccc(F)c(F)c2F)C1=O [Compound 1389] | 80 | 80 | 30 | 70 | 60 | 70 | 60 | 80 | 70 | 80 | 60 | 70 | 90 | 90 | 90 | 100 | 50 | 50 | 0 | 20 | pest or weed control at 250 g/ha (rice (Oryra sativa)): 15%; pest or weed control at 250 g/ha [9]: 0%; pest or weed control at 250 g/ha [10]: 100%; pest or weed control at 250 g/ha [11]: 60%
O=C1NC[C@H](c2nccc(C(F)(F)F)n2)[C@H]1C(=O)Nc1cccc(F)c1F [Compound 1392] | 0 | 30 | 0 | 0 | 0 | 0 | 0 | 0 | 0 | 0 | 0 | 30 | 0 | 20 | 0 | 40 | 0 | 0 | 0 | 0 | pest or weed control at 250 g/ha (rice (Oryra sativa)): 0%; pest or weed control at 250 g/ha [9]: 0%; pest or weed control at 250 g/ha [10]: 30%; pest or weed control at 250 g/ha [11]: 0%
